Source: paper PMC12216609, “Inhibitors of eIF1A-ribosome interaction unveil uORF-dependent regulation of translation initiation and antitumor and antiviral effects” (The EMBO Journal, 2025)
Several values for one entry are separate records, joined by “and”; a condition that tells them apart may be missing. Identical values can stand only once.

What was measured:
[1] = tested on: CUG/GUG vs AUG start codon luciferase reporters in HEK293T cells; assay: Near-cognate AUG starting codon fidelity reporter assay (GUG, CUG vs AUG); assay type: cell-based
[2] = tested on: regulatory CUG of SARS-CoV-2 ORF7a 5'UTR in HEK293T cells; assay type: cell-based
[3] = tested on: IRF7 5'UTR firefly luciferase reporter in HEK293T cells; details: 20 µM;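 note: luciferase signal corrected by a co-transfected GFP reporter for transfection efficiency, read after overnight compound exposure, with Long and Short reporters differing in 5'UTR length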
[4] = molecular target: NSP1 (Severe acute respiratory syndrome coronavirus 2, UniProt P0DTD1)

In the case of `Cc1ccc(C)n1-c1cc([N+](=O)[O-])ccc1N1CCN(C(=O)c2ccccc2)CC1` [1Ai-9008], the “CUG vs AUG (%)” value ([1]; CUG start codon reporter relative to AUG reporter (AUG = 100), compound at 20uM (summary head), single-experiment calculation) is reported as 13.0714%, the “GUG vs AUG (%)” value ([1]; GUG start codon reporter relative to AUG reporter (AUG = 100), compound at 20uM (summary head), single-experiment calculation) is reported as 3.675% and the “average CUG and GUG” value ([1]; NUG experiment) is reported as 8.448. For the same molecule, the “average CUG and GUG relative to DMSO” value ([1]; NUG experiment) was 1.873, the “CUG Average” value ([1]; NUG experiment, CUG vs AUG reporter) was 12.6998 and the “GUG Average” value ([1]; NUG experiment, GUG vs AUG reporter) was 4.196. The “NUG (Final data, Fig. 1E)” value ([1]; average CUG and GUG relative to DMSO, 20 µM overnight) was 1.873, the “GUG vs AUG data (%)” value ([1]; compound at 20uM, individual repeat) was 4.42% and 4.68% and 2.86% and 4.83% and the “GUG vs AUG (%) Average” value ([1]; compound at 20uM, summary average of repeats, DMSO control average […]) was 4.20%. For the same molecule, the “average (inverted)” value ([2]; normalized to DMSO = 1.000, mean of 3 reps) was 0.875, the “CUG/AUG ratio (Renilla/firefly)” value ([2]; overnight) was “decreased the CUG/AUG ratio to variable degrees” and the “FF CTG signal, mean of duplicates” value ([2]; reps 1-3) was 19795.8 and 14760.8 and 12081.3. For the same molecule, the “FF vs Rluc” value ([2]; reps 1-3) was 47.590 and 44.537 and 48.991, the “FF vs Rluc, inverted” value ([2]; reps 1-3) was 0.021 and 0.022 and 0.020 and the “Rluc ATG signal, mean of duplicates” value ([2]; reps 1-3) was 10881500 and 8214985 and 6662440. The “normalized to DMSO” value ([2]; reps 1-3, DMSO = 1) was 0.864 and 0.923 and 0.839, the “Reference vs IRF7 (Final data, Fig. 1E)” value ([3]; 1/Result, relative to DMSO) was 0.775 and the “LONG (summary - All), normalized to DMSO” value ([3]; Long reporter, individual replicates, outliers excluded, DMSO = 1) was 0.81 and 0.44 and 0.52 and 0.48. For the same molecule, the “SHORT (summary - All), normalized to DMSO” value ([3]; Short reporter, individual replicates, outliers excluded, DMSO = 1) was 0.66 and 0.59 and 0.24 and 0.26, the “Long: Normalized to average DMSO” value ([3]; data section, Long reporter, GFP-corrected, per experiment, includes values excluded as outliers) was 0.8135 and 0.4384 and 0.5246 and 0.4822 and the “average ( long vs short ratio)” value ([3]; summary - All) was 1.290. The “GFP reporter ratio nsp1/gfp, avg” value [4] was 0.4707, the “GFP reporter ratio nsp1/gfp, rep 1” value [4] was 0.4454 and the “GFP reporter ratio nsp1/gfp, rep 2” value [4] was 0.4961. For the same molecule, the “gfp signal, mean of duplicate wells” value [4] was 2743.5 and 4942, the “nsp1 signal, mean of duplicate wells” value [4] was 1361 and 2201 and the “ratio (nsp1/gfp)” value [4] was 0.496 and 0.445.
